Assay results from patent publication US9062124B2, “GIP-based mixed agonists for treatment of metabolic disorders and obesity” (priority 2008, dated 2015).
Where a SMILES comes first, the peptide text is derived from it. [ ]: non-standard residue; d: D form. The star is where a group is joined. Stearoyl = CCCCCCCCCCCCCCCCCC(=O)*; Palmitoyl = CCCCCCCCCCCCCCCC(=O)*; Myristoyl = CCCCCCCCCCCCCC(=O)*; Aib = CC(C)(N)C(=O)O

Columns and labels:
[1] = test system: glucagon receptor, GLP-1 receptor or GIP receptor; experiment: Agonist profile across receptors assigned from the cAMP reporter assay data; assay type: cell-based; conditions: assigned from the in vitro EC50 data of Tables 1-4
[2] = Blood glucose levels of mice after peptide injection
GIP receptor = molecular target: T1, GIP receptor (Homo sapiens, UniProt P48546); experiment: cAMP synthesis functional assay (firefly luciferase reporter in HEK293 cells), GIP receptor; assay type: cell-based; conditions: for EC50: GIP Receptor EC50, cAMP luciferase reporter assay as in Example 16; for % activity at the GIP receptor: Table 5, relative to the native hormone; for GIP Receptor relative activity: relative to the standard (Std.) EC50 of the same run
T1 construct: expressed in transfected cells; host or cells: HEK293
T1 sequence (P48546 22-466): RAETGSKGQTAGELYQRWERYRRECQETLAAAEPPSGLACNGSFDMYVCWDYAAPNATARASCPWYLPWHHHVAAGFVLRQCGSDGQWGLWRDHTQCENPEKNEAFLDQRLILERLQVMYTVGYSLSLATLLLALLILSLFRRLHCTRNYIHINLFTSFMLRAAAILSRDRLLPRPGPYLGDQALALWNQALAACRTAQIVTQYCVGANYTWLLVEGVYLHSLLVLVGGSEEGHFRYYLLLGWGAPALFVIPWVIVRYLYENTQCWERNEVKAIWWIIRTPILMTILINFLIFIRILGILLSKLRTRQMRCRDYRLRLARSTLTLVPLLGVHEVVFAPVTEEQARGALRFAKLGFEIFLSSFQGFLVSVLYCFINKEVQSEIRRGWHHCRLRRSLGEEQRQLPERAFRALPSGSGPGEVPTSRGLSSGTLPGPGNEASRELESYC

glucagon receptor = molecular target: T2, glucagon receptor (Homo sapiens, UniProt P47871); experiment: cAMP synthesis functional assay (firefly luciferase reporter in HEK293 cells), glucagon receptor; assay type: cell-based; conditions: for EC50: Glucagon Receptor EC50, cAMP luciferase reporter assay as in Example 16; for % activity at the glucagon receptor: Table 5, relative to the native hormone; for Glucagon Receptor relative activity: relative to the standard (Std.) EC50 of the same run
T2 construct: expressed in transfected cells; host or cells: HEK293
T2 sequence (P47871 26-477): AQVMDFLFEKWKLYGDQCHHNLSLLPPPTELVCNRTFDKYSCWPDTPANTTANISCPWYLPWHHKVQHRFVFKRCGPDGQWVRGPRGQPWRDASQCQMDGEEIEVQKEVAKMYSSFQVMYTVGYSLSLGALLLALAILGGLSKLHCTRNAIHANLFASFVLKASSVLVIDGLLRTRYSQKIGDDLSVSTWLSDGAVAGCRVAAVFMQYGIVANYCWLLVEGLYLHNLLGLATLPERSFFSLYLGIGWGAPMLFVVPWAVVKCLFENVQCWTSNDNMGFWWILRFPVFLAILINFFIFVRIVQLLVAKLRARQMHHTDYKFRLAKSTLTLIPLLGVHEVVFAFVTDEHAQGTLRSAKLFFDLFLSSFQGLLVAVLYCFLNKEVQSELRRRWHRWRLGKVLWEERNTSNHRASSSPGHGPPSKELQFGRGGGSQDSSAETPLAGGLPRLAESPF

GLP-1 receptor = molecular target: T3, GLP-1 receptor (Homo sapiens, UniProt P43220); experiment: cAMP synthesis functional assay (firefly luciferase reporter in HEK293 cells), GLP-1 receptor; assay type: cell-based; conditions: for % activity at the GLP-1 receptor: Table 5, relative to the native hormone; for GLP-1 Receptor relative activity: relative to the standard (Std.) EC50 of the same run
T3 construct: expressed in transfected cells; host or cells: HEK293
T3 sequence (P43220 24-463, species assumed): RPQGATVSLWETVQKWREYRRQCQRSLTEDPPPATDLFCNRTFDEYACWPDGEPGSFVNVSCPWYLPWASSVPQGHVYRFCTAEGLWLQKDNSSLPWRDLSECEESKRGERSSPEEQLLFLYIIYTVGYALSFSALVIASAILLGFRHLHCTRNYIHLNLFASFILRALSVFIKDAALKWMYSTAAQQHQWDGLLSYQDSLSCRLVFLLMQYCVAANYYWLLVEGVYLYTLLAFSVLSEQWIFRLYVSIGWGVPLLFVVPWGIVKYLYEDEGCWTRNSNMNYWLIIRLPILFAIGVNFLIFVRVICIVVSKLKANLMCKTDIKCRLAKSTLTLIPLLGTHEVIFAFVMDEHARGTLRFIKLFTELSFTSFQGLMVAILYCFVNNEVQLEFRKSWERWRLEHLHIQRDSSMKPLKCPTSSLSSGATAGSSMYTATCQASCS

[3] = Body weight of mice after peptide injection; conditions: Example 31; DIO mice, subcutaneous daily for 1 week, 10 nmol/kg

Structure (SMILES) | receptor activity profile (glucagon / GLP-1 / GIP agonism) [1] | decrease in blood glucose levels ([2]; Example 29, mice, QD for 7 days, 25 nmol/kg) [%] | EC50 (GIP receptor) [pM] | decrease in blood glucose levels ([2]; Example 30, 10 nmol/kg dose, Day 7 compared to Day 0) [mg/dL] | EC50 (glucagon receptor) [pM] | % activity at the glucagon receptor (glucagon receptor) [%] | Glucagon Receptor relative activity (glucagon receptor) [%] | % activity at the GLP-1 receptor (GLP-1 receptor) [%] | GLP-1 Receptor relative activity (GLP-1 receptor) [%] | % activity at the GIP receptor (GIP receptor) [%] | GIP Receptor relative activity (GIP receptor) [%] | body weight [3]
CCCCCCCCCCCCCCCCCC(=O)NCCCC[C@H](NC(=O)[C@H](CO)NC(=O)[C@@H]1CCCN1C(=O)[C@@H]1CCCN1C(=O)[C@@H]1CCCN1C(=O)[C@H](C)NC(=O)CNC(=O)[C@H](CO)NC(=O)[C@H](CO)NC(=O)[C@@H]1CCCN1C(=O)CNC(=O)CNC(=O)[C@H](C)NC(=O)[C@H](CC(C)C)NC(=O)[C@H](CC(C)C)NC(=O)[C@H](Cc1c[nH]c2ccccc12)NC(=O)[C@H](CC(N)=O)NC(=O)[C@@H](NC(=O)[C@H](Cc1ccccc1)NC(=O)[C@H](CCC(=O)O)NC(=O)C(C)(C)NC(=O)[C@H](C)NC(=O)[C@H](C)NC(=O)[C@H](CCC(N)=O)NC(=O)[C@H](CCCCN)NC(=O)[C@H](CC(=O)O)NC(=O)[C@H](CC(C)C)NC(=O)[C@H](Cc1ccc(O)cc1)NC(=O)[C@@H](NC(=O)[C@H](CO)NC(=O)[C@H](Cc1ccc(O)cc1)NC(=O)[C@H](CC(=O)O)NC(=O)[C@H](CO)NC(=O)[C@@H](NC(=O)[C@H](Cc1ccccc1)NC(=O)[C@@H](NC(=O)CNC(=O)[C@H](CCC(=O)O)NC(=O)C(C)(C)NC(=O)[C@@H](N)Cc1ccc(O)cc1)[C@@H](C)O)[C@@H](C)O)[C@@H](C)CC)C(C)C)C(N)=O [mt-262] | exhibited activity at the GIP, GLP-1, and glucagon receptors | ~50 |  |  |  |  |  |  |  |  |  | 
CC[C@H](C)[C@H](NC(=O)[C@H](CO)NC(=O)[C@H](Cc1ccc(O)cc1)NC(=O)[C@H](CC(=O)O)NC(=O)[C@H](CO)NC(=O)[C@@H](NC(=O)[C@H](Cc1ccccc1)NC(=O)[C@@H](NC(=O)CNC(=O)[C@H](CCC(=O)O)NC(=O)C(C)(C)NC(=O)[C@@H](N)Cc1ccc(O)cc1)[C@@H](C)O)[C@@H](C)O)C(=O)N[C@@H](Cc1ccc(O)cc1)C(=O)N[C@@H](CC(C)C)C(=O)N[C@@H](CC(=O)O)C(=O)N[C@@H](CCCCN)C(=O)N[C@@H](CCC(N)=O)C(=O)N[C@@H](C)C(=O)N[C@@H](C)C(=O)NC(C)(C)C(=O)N[C@@H](CCC(=O)O)C(=O)N[C@@H](Cc1ccccc1)C(=O)N[C@H](C(=O)N[C@@H](CC(N)=O)C(=O)N[C@@H](Cc1c[nH]c2ccccc12)C(=O)N[C@@H](CC(C)C)C(=O)N[C@@H](CC(C)C)C(=O)N[C@@H](C)C(=O)NCC(=O)NCC(=O)N1CCC[C@H]1C(=O)N[C@@H](CO)C(=O)N[C@@H](CO)C(=O)NCC(=O)N[C@@H](C)C(=O)N1CCC[C@H]1C(=O)N1CCC[C@H]1C(=O)N1CCC[C@H]1C(=O)N[C@@H](CO)C(=O)N[C@@H](CCCCN)C(N)=O)C(C)C [mt-263] |  |  | 3.1 | ~-80 |  |  |  |  |  |  |  | 
CCCCCCCCCCCCCC(=O)NCCCC[C@H](NC(=O)[C@H](CO)NC(=O)[C@@H]1CCCN1C(=O)[C@@H]1CCCN1C(=O)[C@@H]1CCCN1C(=O)[C@H](C)NC(=O)CNC(=O)[C@H](CO)NC(=O)[C@H](CO)NC(=O)[C@@H]1CCCN1C(=O)CNC(=O)CNC(=O)[C@H](C)NC(=O)[C@H](CC(C)C)NC(=O)[C@H](CC(C)C)NC(=O)[C@H](Cc1c[nH]c2ccccc12)NC(=O)[C@H](CC(N)=O)NC(=O)[C@@H](NC(=O)[C@H](Cc1ccccc1)NC(=O)[C@H](CCC(=O)O)NC(=O)C(C)(C)NC(=O)[C@H](C)NC(=O)[C@H](C)NC(=O)[C@H](CCC(N)=O)NC(=O)[C@H](CCCCN)NC(=O)[C@H](CC(=O)O)NC(=O)[C@H](CC(C)C)NC(=O)[C@H](Cc1ccc(O)cc1)NC(=O)[C@@H](NC(=O)[C@H](CO)NC(=O)[C@H](Cc1ccc(O)cc1)NC(=O)[C@H](CC(=O)O)NC(=O)[C@H](CO)NC(=O)[C@@H](NC(=O)[C@H](Cc1ccccc1)NC(=O)[C@@H](NC(=O)CNC(=O)[C@H](CCC(N)=O)NC(=O)C(C)(C)NC(=O)[C@@H](N)Cc1ccc(O)cc1)[C@@H](C)O)[C@@H](C)O)[C@@H](C)CC)C(C)C)C(N)=O [mt-277] (H-Y[Aib]QGTFTSDYSIYLDKQAA[Aib]EFVNWLLAGGPSSGAPPPSK(Myristoyl)-NH2; N-terminus assumed) | exhibited activity at the GIP, GLP-1, and glucagon receptors |  |  |  | 21.5 | 235 | 235.35 | 224 | 224.42 | 446 | 455.77 | caused significant weight loss in the mice
CCCCCCCCCCCCCCCC(=O)NCCCC[C@H](NC(=O)[C@H](CO)NC(=O)[C@@H]1CCCN1C(=O)[C@@H]1CCCN1C(=O)[C@@H]1CCCN1C(=O)[C@H](C)NC(=O)CNC(=O)[C@H](CO)NC(=O)[C@H](CO)NC(=O)[C@@H]1CCCN1C(=O)CNC(=O)CNC(=O)[C@H](C)NC(=O)[C@H](CC(C)C)NC(=O)[C@H](CC(C)C)NC(=O)[C@H](Cc1c[nH]c2ccccc12)NC(=O)[C@H](CC(N)=O)NC(=O)[C@@H](NC(=O)[C@H](Cc1ccccc1)NC(=O)[C@H](CCC(=O)O)NC(=O)C(C)(C)NC(=O)[C@H](C)NC(=O)[C@H](C)NC(=O)[C@H](CCC(N)=O)NC(=O)[C@H](CCCCN)NC(=O)[C@H](CC(=O)O)NC(=O)[C@H](CC(C)C)NC(=O)[C@H](Cc1ccc(O)cc1)NC(=O)[C@@H](NC(=O)[C@H](CO)NC(=O)[C@H](Cc1ccc(O)cc1)NC(=O)[C@H](CC(=O)O)NC(=O)[C@H](CO)NC(=O)[C@@H](NC(=O)[C@H](Cc1ccccc1)NC(=O)[C@@H](NC(=O)CNC(=O)[C@H](CCC(N)=O)NC(=O)C(C)(C)NC(=O)[C@@H](N)Cc1ccc(O)cc1)[C@@H](C)O)[C@@H](C)O)[C@@H](C)CC)C(C)C)C(N)=O [mt-278] (H-Y[Aib]QGTFTSDYSIYLDKQAA[Aib]EFVNWLLAGGPSSGAPPPSK(Palmitoyl)-NH2; N-terminus assumed) | exhibited activity at the GIP, GLP-1, and glucagon receptors |  | 2.8 |  | 8.6 | 588 | 588.37 | 460 | 459.52 | 846 | 846.43 | caused significant weight loss in the mice
CCCCCCCCCCCCCCCCCC(=O)NCCCC[C@H](NC(=O)[C@H](CO)NC(=O)[C@@H]1CCCN1C(=O)[C@@H]1CCCN1C(=O)[C@@H]1CCCN1C(=O)[C@H](C)NC(=O)CNC(=O)[C@H](CO)NC(=O)[C@H](CO)NC(=O)[C@@H]1CCCN1C(=O)CNC(=O)CNC(=O)[C@H](C)NC(=O)[C@H](CC(C)C)NC(=O)[C@H](CC(C)C)NC(=O)[C@H](Cc1c[nH]c2ccccc12)NC(=O)[C@H](CC(N)=O)NC(=O)[C@@H](NC(=O)[C@H](Cc1ccccc1)NC(=O)[C@H](CCC(=O)O)NC(=O)C(C)(C)NC(=O)[C@H](C)NC(=O)[C@H](C)NC(=O)[C@H](CCC(N)=O)NC(=O)[C@H](CCCCN)NC(=O)[C@H](CC(=O)O)NC(=O)[C@H](CC(C)C)NC(=O)[C@H](Cc1ccc(O)cc1)NC(=O)[C@@H](NC(=O)[C@H](CO)NC(=O)[C@H](Cc1ccc(O)cc1)NC(=O)[C@H](CC(=O)O)NC(=O)[C@H](CO)NC(=O)[C@@H](NC(=O)[C@H](Cc1ccccc1)NC(=O)[C@@H](NC(=O)CNC(=O)[C@H](CCC(N)=O)NC(=O)C(C)(C)NC(=O)[C@@H](N)Cc1ccc(O)cc1)[C@@H](C)O)[C@@H](C)O)[C@@H](C)CC)C(C)C)C(N)=O [mt-279] (H-Y[Aib]QGTFTSDYSIYLDKQAA[Aib]EFVNWLLAGGPSSGAPPPSK(Stearoyl)-NH2; N-terminus assumed) | exhibited activity at the GIP, GLP-1, and glucagon receptors |  | 4.5 |  | 6.9 | 733 | 733.33 | 420 | 419.57 | 527 | 526.67 | caused significant weight loss in the mice
